{
  "source": "patent US9796777B2",
  "about": "“Methods of treating malignant tumors” (Canimguide Therapeutics AB, priority 2007, dated 2017)",
  "key": {"[1]": {"tested_on": "cell surface receptors of immune cells (ACS)", "experiment": "Adsorption of enzyme fragmented dHSA on affinity column with biotinylated cell surface proteins (ACS), MALDI-TOF ms", "format": "binding, human", "procedure": "Based on the observation that immunoregulatory peptide sequences are present in serum albumin, there is the possibility that other sequences than the epitope of mAb A have immunoregulatory function. Therefore an artificial cell surface (ACS) was prepared as described in materials and methods. […]\nTo remove unfragmented albumin and enzyme, the sample was ultra filtered through an Amicon Ultra 4 (mw cut-off of 5000) or a Centriplus (mw cut-off 10000) centrifugal filter (Millipore AB, Solna, Sweden). The filtrate, containing fragmented dHSA without enzymes, was collected and diluted with PBS with Ca and Mg (GIBCO).\nBuffy coats generated from 450 ml blood each was collected from 4 healthy donors. Erythrocytes were removed by sedimentation on 2% dextran T500 solution (Amersham Pharmacia Biotech AB, Uppsala Sweden) in 0.9% NaCl. Mononuclear cells (PBMC) were then isolated by Ficoll-Paque Plus (GE Healthcare Bioscience AB Sweden) density gradient centrifugation. The PBMC were then suspended in phosphate buffered saline (PBS) containing Ca and Mg (GIBCO) at a concentration of 10×10^6/ml. EZ Link Sulfo-NHS-biotin (Pierce USA) was added at a final concentration of 0.2 mg/ml and the mixture incubated on a shaker at room temperature for 10 min. Excess biotin was then removed by washing the PBMC in PBS. Biotinylated PBMC were then lysed by adding 1.0 ml ice-cold lysing buffer (50 mM Tris-HCL, pH 7.5, with 0.15 M NaCl, 5 mM MgCl2 containing 100 mM Octyl glucoside and 1 mM Phenylmethylsulfonyl fluoride) per 2×10^7 pelleted cells with gentle shaking, then incubated for 30 min. on ice. Debris was removed by centrifugation at 5000×g at 4° C. for 10 min and the supernatants was collected and pooled from all four donors. The lysate was then stored at −70° C. in polypropylene plastic tubes.\nThis amount of lysate corresponds to 36×10^7 mononuclear cells. It was added to a 1 ml Hitrap Streptavidin HP affinity column (Amersham Biosciences). To block possible remaining free biotin, 5 ml of 0.1 M glycine (Sigma) was added to the column. Unsaturated streptavidin on the column was then reacted with 150 ug biotin (Sigma) in binding buffer. The column was carefully washed with PBS and stored in PBS with 0.1% NaN3 at 4° C. until use.\n27 ml biotinylated cell lysate in binding buffer (corresponding to 54×10^7 mononuclear cells) was added to 1.5 ml washed Streptavidin Sepharose HP (Amersham Biosciences). To block possible remaining free biotin, 25 ml of 0.1 M glycine (Sigma) was added to the Streptavidin Sepharose. Unsaturated streptavidin was then reacted with 225 μg biotin (Sigma) in binding buffer. The Streptavidin Sepharose was carefully washed in PBS. One ml of the biotinylated cell lysate coupled Streptavidin Sepharose was then packed in an empty column (Tricorn Empty High Performance Column, Amersham Bioscience) and washed with phosphate buffered saline (PBS) containing Ca and Mg (GIBCO).\nThe flow-through was collected with consideration taken to void volume and dilution of adsorbed sample by collecting in small portions of 0.2 ml. Thirty ul of each sample, including a control sample that has not been adsorbed, were dried in a Speed-Vac centrifuge.\nDried samples were reconstituted in 10 ul of 0.1% TFA. Zip Tip pipette tips (Millipore, USA) containing C18 reversed-phase media were used for desalting reconstituted samples. […] For the analysis of samples in the mass range 1500-9000 Da, one μl of each Zip Tip eluted sample was mixed with 1 μl of sinapinic acid ([…]). […] Mass identity search of resulting spectra was performed in the SwissProt or NCBI databases using MS-Fit."}, "PBMCs": {"tested_on": "PBMCs", "experiment": "PHA-induced proliferation of PBMC in the presence of albumin peptides and/or dHSA", "format": "cell-based, human", "conditions": "PBMCs from two healthy controls; two PHA concentrations", "excerpt": "Venous blood was drawn from healthy volunteers or from cancer patients in glass vacuum tubes with acid dextrose citrate solution A as anti-coagulant (Vacutainer, Becton Dickinson, Franklin Lakes, N.J.). Erythrocytes were removed by sedimentation on 2% dextran T500 solution (Amersham Pharmacia Biotech AB, Uppsala, Sweden) in 0.9% NaCl (this step was omitted for cultures with PHA-stimulation-see below). […] For cell cultures with PHA-stimulation, PBMC were washed in Hank's Balanced Salt Solution (HBSS) with 10% autologous plasma instead of RPMI/2% HSA. […] The cell suspension was stained with Turk's solution and the number of lymphocytes and monocytes in the PBMC preparation were counted in a hemocytometer. PBMCs were suspended in RPMI/2% HSA and the cell concentration adjusted to 5×10^5 lymphocytes/ml.\n100 μl of the cell suspension were seeded into round-bottomed microtiter plates (Corning, N.Y., USA) followed by 100 μl of culture medium consisting of RPMI 1640 (Flow Laboratories, Irvine, Scotland) supplemented with 200 IU/ml Penicillin, 200 μg/ml Streptomycin (Flow laboratories) and 20% heat inactivated autologous serum. Phytohemagglutinin (PHA-P, Sigma Chemical Co, St. Louis, Mo.) at a final concentration of 5 or 10 μg/ml was then added.\nAll culture conditions were set up in triplicate wells. […] Mean values of disintegrations per minute (dpm) of triplicates were used for the calculations."}, "PBMC": {"tested_on": "PBMC", "experiment": "LPS-induced IL-6 production by PBMC, effect of peptides", "format": "cell-based, human", "conditions": "three cancer patients"}},
  "data": [
    {"sequence": "VFDEFKPLVEEPQNLIK [peptide 3028]", "values": [
      {"measurement": "Per cent adsorbed", "setting": "[1]; Table 5 A, peptides generated by trypsin degradation of dHSA", "value": 0.60, "unit": "Per cent"},
      {"measurement": "Per cent adsorbed", "setting": "[1]; Table 5 B, trypsin peptides selected for synthesis", "value": 0.60, "unit": "Per cent"},
      {"measurement": "effect on dHSA modulated PHA stimulated proliferation", "setting": "PBMCs", "value": "inhibited the stimulatory activity of dHSA"},
      {"measurement": "effect on LPS induced IL-6 production", "setting": "PBMC", "value": "essentially no effects"}
    ]}
  ]
}
